Measured values: ChEMBL document CHEMBL3991601, “The target landscape of clinical kinase drugs” (Science, 2017)
Activity calls are given as the source filed them. Rule as the data show it, for most assays here: actives have a measured Kd and inactives only a lower limit.

Assays:
[1] = molecular target: AP2-associated protein kinase 1 (Homo sapiens, UniProt Q2M2I8)
[2] = molecular target: BMP-2-inducible protein kinase (Homo sapiens, UniProt Q9NSY1)
[3] = molecular target: Cyclin-dependent kinase 1 (Homo sapiens, UniProt P06493)
[4] = molecular target: Cyclin-dependent kinase 12 (Homo sapiens, UniProt Q9NYV4)
[5] = molecular target: Cyclin-dependent kinase 3 (Homo sapiens, UniProt Q00526)
Sequence of Cyclin-dependent kinase 3 (Q00526 whole entry): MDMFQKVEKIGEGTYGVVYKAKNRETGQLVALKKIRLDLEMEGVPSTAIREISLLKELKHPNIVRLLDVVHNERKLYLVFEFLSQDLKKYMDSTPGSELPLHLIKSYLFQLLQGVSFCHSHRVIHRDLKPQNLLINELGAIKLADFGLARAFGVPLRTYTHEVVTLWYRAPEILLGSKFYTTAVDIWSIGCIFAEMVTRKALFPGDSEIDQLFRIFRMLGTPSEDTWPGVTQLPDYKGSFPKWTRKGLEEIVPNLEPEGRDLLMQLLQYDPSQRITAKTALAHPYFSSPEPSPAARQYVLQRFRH

[6] = molecular target: Citron Rho-interacting kinase (Homo sapiens, UniProt O14578)
Deoxycytidine kinase = Deoxycytidine kinase (Homo sapiens, UniProt P27707)
Sequence of Deoxycytidine kinase (P27707 whole entry): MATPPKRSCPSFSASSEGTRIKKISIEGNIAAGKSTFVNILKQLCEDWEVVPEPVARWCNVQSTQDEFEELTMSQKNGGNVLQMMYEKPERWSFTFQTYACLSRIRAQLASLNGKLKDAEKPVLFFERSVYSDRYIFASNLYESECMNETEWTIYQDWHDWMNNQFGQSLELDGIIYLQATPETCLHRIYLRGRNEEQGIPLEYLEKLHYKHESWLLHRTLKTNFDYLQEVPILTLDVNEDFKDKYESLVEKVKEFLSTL

[7] = molecular target: DnaJ homolog subfamily A member 1 (Homo sapiens, UniProt P31689)
Ephrin type-A receptor 2 = Ephrin type-A receptor 2 (Homo sapiens, UniProt P29317)
Sequence of Ephrin type-A receptor 2 (P29317 whole entry): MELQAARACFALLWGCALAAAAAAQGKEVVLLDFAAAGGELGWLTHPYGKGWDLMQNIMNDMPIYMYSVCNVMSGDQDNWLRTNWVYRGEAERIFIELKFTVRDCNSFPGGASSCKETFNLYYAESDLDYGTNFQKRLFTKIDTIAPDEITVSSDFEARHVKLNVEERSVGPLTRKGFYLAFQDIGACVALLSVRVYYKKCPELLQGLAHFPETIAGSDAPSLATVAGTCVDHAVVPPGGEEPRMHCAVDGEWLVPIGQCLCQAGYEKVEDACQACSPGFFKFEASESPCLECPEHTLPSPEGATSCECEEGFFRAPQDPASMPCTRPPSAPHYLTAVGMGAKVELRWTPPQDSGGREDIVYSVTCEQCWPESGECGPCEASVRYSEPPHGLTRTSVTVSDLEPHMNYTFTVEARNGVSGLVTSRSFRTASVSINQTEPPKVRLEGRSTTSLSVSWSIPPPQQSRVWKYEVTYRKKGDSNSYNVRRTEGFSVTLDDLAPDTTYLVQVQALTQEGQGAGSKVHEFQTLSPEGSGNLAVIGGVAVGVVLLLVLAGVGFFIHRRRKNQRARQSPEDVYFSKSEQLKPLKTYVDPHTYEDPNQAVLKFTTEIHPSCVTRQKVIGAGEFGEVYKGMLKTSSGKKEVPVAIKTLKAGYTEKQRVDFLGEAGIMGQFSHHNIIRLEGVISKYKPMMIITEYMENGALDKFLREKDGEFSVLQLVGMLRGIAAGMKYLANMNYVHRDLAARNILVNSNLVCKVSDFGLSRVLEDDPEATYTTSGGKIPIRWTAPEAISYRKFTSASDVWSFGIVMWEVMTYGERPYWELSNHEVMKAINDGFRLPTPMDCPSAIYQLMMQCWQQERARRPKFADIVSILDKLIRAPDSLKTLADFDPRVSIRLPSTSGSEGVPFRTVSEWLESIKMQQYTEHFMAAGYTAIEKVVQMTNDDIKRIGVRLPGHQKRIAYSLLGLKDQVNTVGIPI

[8] = molecular target: T1, Dual specificity mitogen-activated protein kinase kinase 6 (Homo sapiens, UniProt P52564)
T1 sequence (P52564 whole entry): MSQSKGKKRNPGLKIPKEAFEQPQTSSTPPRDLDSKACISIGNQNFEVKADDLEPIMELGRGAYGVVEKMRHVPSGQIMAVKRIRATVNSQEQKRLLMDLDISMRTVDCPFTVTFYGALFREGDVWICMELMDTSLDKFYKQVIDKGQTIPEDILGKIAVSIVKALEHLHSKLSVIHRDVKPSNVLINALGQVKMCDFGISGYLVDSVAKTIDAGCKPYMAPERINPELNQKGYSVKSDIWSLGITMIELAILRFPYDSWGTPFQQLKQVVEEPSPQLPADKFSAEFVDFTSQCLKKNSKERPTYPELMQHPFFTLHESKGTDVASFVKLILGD

Myosin-14 = Myosin-14 (Homo sapiens, UniProt Q7Z406)
[9] = molecular target: NADH dehydrogenase [ubiquinone] 1 alpha subcomplex subunit 13 (Homo sapiens, UniProt Q9P0J0)
Sequence of NADH dehydrogenase [ubiquinone] 1 alpha subcomplex subunit 13 (Q9P0J0 whole entry, one chain of several): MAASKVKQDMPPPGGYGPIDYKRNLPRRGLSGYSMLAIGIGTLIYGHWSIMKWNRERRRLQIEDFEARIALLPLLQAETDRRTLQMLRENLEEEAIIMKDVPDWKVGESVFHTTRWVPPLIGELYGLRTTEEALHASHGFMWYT

[10] = molecular target: Serine/threonine-protein kinase PAK 2 (Homo sapiens, UniProt Q13177)
Sequence of Serine/threonine-protein kinase PAK 2 (Q13177 whole entry): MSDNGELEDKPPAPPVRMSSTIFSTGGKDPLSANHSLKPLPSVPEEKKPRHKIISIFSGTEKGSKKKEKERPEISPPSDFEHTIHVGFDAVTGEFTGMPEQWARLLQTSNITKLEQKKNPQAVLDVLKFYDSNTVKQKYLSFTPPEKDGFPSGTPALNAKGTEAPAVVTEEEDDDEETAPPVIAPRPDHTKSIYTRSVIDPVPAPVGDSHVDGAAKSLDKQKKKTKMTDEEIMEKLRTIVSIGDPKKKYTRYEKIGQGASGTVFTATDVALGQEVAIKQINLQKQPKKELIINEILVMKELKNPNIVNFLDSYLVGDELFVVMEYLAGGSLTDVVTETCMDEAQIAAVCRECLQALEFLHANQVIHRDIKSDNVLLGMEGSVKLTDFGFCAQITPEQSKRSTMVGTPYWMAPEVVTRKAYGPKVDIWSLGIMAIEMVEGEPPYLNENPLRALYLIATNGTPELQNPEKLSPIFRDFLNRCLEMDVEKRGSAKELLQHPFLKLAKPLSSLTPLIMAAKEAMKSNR

[11] = molecular target: T2, Serine/threonine-protein kinase TAO2 (Homo sapiens, UniProt Q9UL54)
T2 sequence (Q9UL54 whole entry): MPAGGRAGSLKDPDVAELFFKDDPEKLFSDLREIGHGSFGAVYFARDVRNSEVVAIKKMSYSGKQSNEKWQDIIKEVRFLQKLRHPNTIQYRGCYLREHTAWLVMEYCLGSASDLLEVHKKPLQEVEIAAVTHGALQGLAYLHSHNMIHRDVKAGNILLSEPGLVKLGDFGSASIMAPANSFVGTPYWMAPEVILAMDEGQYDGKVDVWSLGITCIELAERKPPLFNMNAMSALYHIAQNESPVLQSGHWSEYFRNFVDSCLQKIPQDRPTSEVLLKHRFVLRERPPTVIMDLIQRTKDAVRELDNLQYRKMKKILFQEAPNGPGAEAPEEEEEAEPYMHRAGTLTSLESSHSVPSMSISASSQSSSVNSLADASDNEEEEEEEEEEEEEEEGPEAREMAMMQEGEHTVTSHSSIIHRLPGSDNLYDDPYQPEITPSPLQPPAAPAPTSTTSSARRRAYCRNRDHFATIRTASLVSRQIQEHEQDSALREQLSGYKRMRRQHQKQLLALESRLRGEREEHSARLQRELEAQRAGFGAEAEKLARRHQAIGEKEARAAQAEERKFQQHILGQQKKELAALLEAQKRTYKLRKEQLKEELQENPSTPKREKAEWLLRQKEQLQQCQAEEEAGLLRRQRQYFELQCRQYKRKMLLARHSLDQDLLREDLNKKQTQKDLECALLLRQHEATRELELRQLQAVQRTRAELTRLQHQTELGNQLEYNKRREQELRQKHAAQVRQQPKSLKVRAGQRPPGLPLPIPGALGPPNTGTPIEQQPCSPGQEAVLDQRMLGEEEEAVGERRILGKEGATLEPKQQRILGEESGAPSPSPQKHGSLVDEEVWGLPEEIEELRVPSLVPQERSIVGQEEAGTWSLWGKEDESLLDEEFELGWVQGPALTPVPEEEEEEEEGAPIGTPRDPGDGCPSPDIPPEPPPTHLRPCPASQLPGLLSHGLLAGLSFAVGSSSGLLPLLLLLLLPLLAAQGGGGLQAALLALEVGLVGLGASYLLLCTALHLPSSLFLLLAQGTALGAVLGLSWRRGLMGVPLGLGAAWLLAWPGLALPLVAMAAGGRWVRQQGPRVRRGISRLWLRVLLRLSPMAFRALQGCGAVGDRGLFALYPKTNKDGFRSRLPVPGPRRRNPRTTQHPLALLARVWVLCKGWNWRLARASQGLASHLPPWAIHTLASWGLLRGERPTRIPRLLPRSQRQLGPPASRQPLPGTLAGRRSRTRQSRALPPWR

DNA topoisomerase 2-beta = DNA topoisomerase 2-beta (Homo sapiens, UniProt Q02880)
Sequence of DNA topoisomerase 2-beta (Q02880 whole entry): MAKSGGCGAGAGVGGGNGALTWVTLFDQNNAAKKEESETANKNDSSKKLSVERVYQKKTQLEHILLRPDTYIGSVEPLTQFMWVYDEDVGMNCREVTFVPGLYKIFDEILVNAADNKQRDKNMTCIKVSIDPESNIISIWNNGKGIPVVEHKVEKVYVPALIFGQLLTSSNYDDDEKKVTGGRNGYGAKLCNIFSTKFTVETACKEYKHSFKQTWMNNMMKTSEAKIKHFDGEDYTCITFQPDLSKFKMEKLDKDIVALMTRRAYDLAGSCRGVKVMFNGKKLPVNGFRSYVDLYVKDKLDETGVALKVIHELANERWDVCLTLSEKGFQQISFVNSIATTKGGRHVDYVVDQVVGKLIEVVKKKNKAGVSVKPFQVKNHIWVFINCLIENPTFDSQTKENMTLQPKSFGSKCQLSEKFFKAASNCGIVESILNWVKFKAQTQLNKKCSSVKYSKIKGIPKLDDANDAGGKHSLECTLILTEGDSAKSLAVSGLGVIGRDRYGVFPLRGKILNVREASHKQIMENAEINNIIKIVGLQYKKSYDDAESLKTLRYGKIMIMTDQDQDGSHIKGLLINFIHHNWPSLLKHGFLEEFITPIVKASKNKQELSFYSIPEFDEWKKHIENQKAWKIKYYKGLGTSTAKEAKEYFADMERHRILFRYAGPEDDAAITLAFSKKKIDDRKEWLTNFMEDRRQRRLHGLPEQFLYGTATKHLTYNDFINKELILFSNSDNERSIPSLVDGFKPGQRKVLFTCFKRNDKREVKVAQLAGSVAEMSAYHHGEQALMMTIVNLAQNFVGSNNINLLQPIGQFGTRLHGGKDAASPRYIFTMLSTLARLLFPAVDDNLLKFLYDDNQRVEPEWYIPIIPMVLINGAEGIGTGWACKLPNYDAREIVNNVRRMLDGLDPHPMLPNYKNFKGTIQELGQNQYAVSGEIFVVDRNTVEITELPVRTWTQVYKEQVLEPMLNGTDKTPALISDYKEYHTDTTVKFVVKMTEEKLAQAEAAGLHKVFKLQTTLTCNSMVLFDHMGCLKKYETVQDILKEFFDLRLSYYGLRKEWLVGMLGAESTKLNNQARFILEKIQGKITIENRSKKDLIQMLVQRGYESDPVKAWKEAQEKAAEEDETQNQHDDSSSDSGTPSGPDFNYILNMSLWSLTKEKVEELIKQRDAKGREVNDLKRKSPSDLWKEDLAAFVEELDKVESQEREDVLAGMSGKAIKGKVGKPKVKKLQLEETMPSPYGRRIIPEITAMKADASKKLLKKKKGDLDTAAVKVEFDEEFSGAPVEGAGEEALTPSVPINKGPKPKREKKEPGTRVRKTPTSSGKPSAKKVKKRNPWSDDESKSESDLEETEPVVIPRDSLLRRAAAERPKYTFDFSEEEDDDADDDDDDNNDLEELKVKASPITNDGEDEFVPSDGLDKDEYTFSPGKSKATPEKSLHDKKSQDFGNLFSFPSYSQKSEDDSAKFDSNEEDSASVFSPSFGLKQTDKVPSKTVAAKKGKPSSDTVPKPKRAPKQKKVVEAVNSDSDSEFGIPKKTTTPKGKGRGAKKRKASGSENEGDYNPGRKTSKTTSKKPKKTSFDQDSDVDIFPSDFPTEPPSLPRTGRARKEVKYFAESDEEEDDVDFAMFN
Also: in the data inactive means no Kd found up to 30 µM.

Sequence of BMP-2-inducible protein kinase (Q9NSY1 whole entry): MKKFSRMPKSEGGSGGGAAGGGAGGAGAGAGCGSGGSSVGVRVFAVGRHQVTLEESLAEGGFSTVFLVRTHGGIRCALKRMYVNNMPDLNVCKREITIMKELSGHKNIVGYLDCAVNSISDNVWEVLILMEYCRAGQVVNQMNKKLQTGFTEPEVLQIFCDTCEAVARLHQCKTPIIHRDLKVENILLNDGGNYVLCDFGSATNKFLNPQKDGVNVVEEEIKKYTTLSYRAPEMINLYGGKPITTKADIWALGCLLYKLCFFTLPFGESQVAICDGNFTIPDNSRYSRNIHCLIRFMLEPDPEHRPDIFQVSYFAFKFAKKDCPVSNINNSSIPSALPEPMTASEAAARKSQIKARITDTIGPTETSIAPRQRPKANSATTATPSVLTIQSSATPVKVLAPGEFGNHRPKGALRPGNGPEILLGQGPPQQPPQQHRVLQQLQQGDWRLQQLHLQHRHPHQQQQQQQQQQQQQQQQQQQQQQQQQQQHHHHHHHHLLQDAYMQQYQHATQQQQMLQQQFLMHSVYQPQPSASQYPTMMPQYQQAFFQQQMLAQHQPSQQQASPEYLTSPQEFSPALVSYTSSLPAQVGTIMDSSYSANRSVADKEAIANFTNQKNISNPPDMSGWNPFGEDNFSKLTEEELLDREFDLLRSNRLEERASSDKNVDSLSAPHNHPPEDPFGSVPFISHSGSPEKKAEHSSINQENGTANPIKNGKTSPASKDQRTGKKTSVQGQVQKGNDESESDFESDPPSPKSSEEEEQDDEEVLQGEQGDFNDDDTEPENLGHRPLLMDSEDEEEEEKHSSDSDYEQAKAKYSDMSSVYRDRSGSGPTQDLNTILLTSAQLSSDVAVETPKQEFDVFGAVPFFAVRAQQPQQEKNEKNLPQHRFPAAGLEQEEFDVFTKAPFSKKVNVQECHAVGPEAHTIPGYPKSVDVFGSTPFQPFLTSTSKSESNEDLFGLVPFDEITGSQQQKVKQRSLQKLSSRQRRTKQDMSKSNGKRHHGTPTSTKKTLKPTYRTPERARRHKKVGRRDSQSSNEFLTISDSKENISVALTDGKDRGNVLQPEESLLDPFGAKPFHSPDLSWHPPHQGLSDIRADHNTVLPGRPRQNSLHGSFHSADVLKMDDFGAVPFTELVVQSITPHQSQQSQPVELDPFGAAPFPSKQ

Compound	Kd [1]	Kd [2]	Kd [3]	Kd [4]	Kd [5]	Kd [6]	Kd (Deoxycytidine kinase)	Kd [7]	Kd (Ephrin type-A receptor 2)	Kd [8]	Kd (Myosin-14)	Kd [9]	Kd [10]	Kd [11]	Kd (DNA topoisomerase 2-beta)
CNC(=O)c1ccc(C)c(-n2c(C)cc(OCc3ccc(F)cc3F)c(Br)c2=O)c1 [PH-797804]	> 30 µM (inactive)	> 30 µM (inactive)	> 30 µM (inactive)	> 30 µM (inactive)	> 30 µM (inactive)	> 30 µM (inactive)	> 30 µM (inactive)	> 30 µM (inactive)	> 30 µM (inactive)	> 30 µM (inactive)	> 30 µM (inactive)	> 30 µM (inactive)	> 30 µM (inactive)	> 30 µM (inactive)	> 30 µM (inactive)
CCn1c(=O)c(-c2cc[nH]n2)cc2c(C)nc(N)nc21 [VOXTALISIB]	> 30 µM (inactive)	> 30 µM (inactive)	> 30 µM (inactive)	> 30 µM (inactive)	> 30 µM (inactive)	> 30 µM (inactive)	> 30 µM (inactive)	> 30 µM (inactive)	> 30 µM (inactive)	> 30 µM (inactive)	> 30 µM (inactive)	> 30 µM (inactive)	> 30 µM (inactive)	> 30 µM (inactive)	> 30 µM (inactive)
Cc1cc2c(F)c(Oc3ncnn4cc(OC[C@@H](C)OC(=O)[C@H](C)N)c(C)c34)ccc2[nH]1 [BRIVANIB ALANINATE]	> 30 µM (inactive)	> 30 µM (inactive)	> 30 µM (inactive)	> 30 µM (inactive)	> 30 µM (inactive)	> 30 µM (inactive)	> 30 µM (inactive)	> 30 µM (inactive)	> 30 µM (inactive)	> 30 µM (inactive)	> 30 µM (inactive)	> 30 µM (inactive)	> 30 µM (inactive)	> 30 µM (inactive)	> 30 µM (inactive)
Cc1ccc(-n2nc(C(C)(C)C)cc2NC(=O)NCc2cc(F)ccc2Oc2ccc3c(cnn3CCO)c2)cc1 [PEXMETINIB]	> 30 µM (inactive)	> 30 µM (inactive)	> 30 µM (inactive)	> 30 µM (inactive)	> 30 µM (inactive)	> 30 µM (inactive)	> 30 µM (inactive)	> 30 µM (inactive)	2.56 µM (active)	> 30 µM (inactive)	> 30 µM (inactive)	> 30 µM (inactive)	> 30 µM (inactive)	> 30 µM (inactive)	> 30 µM (inactive)
O=C1NC(=O)/C(=C/c2ccc3nccc(-c4ccncc4)c3c2)S1 [GSK-1059615]	0.035 µM (active)	0.402 µM (active)	> 30 µM (inactive)	> 30 µM (inactive)	> 30 µM (inactive)	> 30 µM (inactive)	> 30 µM (inactive)	> 30 µM (inactive)	> 30 µM (inactive)	> 30 µM (inactive)	> 30 µM (inactive)	> 30 µM (inactive)	> 30 µM (inactive)	> 30 µM (inactive)	> 30 µM (inactive)
CNC(=O)c1cc(Oc2ccc(NC(=O)Nc3ccc(Cl)c(C(F)(F)F)c3)c(F)c2)ccn1 [REGORAFENIB]	> 30 µM (inactive)	> 30 µM (inactive)	> 30 µM (inactive)	> 30 µM (inactive)	> 30 µM (inactive)	> 30 µM (inactive)	> 30 µM (inactive)	> 30 µM (inactive)	0.832 µM (active)	> 30 µM (inactive)	> 30 µM (inactive)	> 30 µM (inactive)	> 30 µM (inactive)	> 30 µM (inactive)	> 30 µM (inactive)
CN1N=C(N)c2cn([C@@H]3O[C@H](COP(=O)(O)O)[C@@H](O)[C@H]3O)c3ncnc1c23 [TRICIRIBINE PHOSPHATE]	> 30 µM (inactive)	> 30 µM (inactive)	> 30 µM (inactive)	> 30 µM (inactive)	> 30 µM (inactive)	> 30 µM (inactive)	> 30 µM (inactive)	> 30 µM (inactive)	> 30 µM (inactive)	> 30 µM (inactive)	> 30 µM (inactive)	> 30 µM (inactive)	> 30 µM (inactive)	> 30 µM (inactive)	> 30 µM (inactive)
OCCn1cc(-c2cnc3nnn(Cc4ccc5ncccc5c4)c3n2)cn1 [PF-04217903]	> 30 µM (inactive)	> 30 µM (inactive)	> 30 µM (inactive)	> 30 µM (inactive)	> 30 µM (inactive)	> 30 µM (inactive)	> 30 µM (inactive)	> 30 µM (inactive)	> 30 µM (inactive)	> 30 µM (inactive)	> 30 µM (inactive)	> 30 µM (inactive)	> 30 µM (inactive)	> 30 µM (inactive)	> 30 µM (inactive)
CN1CCC(CNc2ccc3ncc(-c4cccc(OC(F)(F)F)c4)n3n2)CC1 [SGI-1776]	> 30 µM (inactive)	8.53 µM (active)	> 30 µM (inactive)	> 30 µM (inactive)	> 30 µM (inactive)	> 30 µM (inactive)	> 30 µM (inactive)	> 30 µM (inactive)	> 30 µM (inactive)	> 30 µM (inactive)	> 30 µM (inactive)	> 30 µM (inactive)	> 30 µM (inactive)	> 30 µM (inactive)	> 30 µM (inactive)
CC(C)Nc1cc(-c2c[nH]c(C(=O)N[C@H](CO)c3cccc(Cl)c3)c2)c(Cl)cn1 [ULIXERTINIB]	> 30 µM (inactive)	> 30 µM (inactive)	> 30 µM (inactive)	> 30 µM (inactive)	> 30 µM (inactive)	> 30 µM (inactive)	> 30 µM (inactive)	> 30 µM (inactive)	> 30 µM (inactive)	> 30 µM (inactive)	> 30 µM (inactive)	> 30 µM (inactive)	> 30 µM (inactive)	> 30 µM (inactive)	> 30 µM (inactive)
CC[C@@H]1C(=O)N(C)c2cnc(Nc3ccc(C(=O)N[C@H]4CC[C@H](N5CCN(CC6CC6)CC5)CC4)cc3OC)nc2N1C(C)C [VOLASERTIB]	> 30 µM (inactive)	> 30 µM (inactive)	> 30 µM (inactive)	> 30 µM (inactive)	> 30 µM (inactive)	> 30 µM (inactive)	> 30 µM (inactive)	> 30 µM (inactive)	> 30 µM (inactive)	> 30 µM (inactive)	> 30 µM (inactive)	> 30 µM (inactive)	> 30 µM (inactive)	> 30 µM (inactive)	> 30 µM (inactive)
CN1CC[C@@H](c2c(O)cc(O)c3c(=O)cc(-c4ccccc4Cl)oc23)[C@@H]1CO	> 30 µM (inactive)	> 30 µM (inactive)	4.23 µM (active)	3.16 µM (active)	> 30 µM (inactive)	> 30 µM (inactive)	> 30 µM (inactive)	> 30 µM (inactive)	> 30 µM (inactive)	> 30 µM (inactive)	> 30 µM (inactive)	> 30 µM (inactive)	> 30 µM (inactive)	> 30 µM (inactive)	> 30 µM (inactive)
